T1: UDP-glucuronosyltransferase 1A1 (Homo sapiens, UniProt P22309)
T1 sequence (P22309 whole entry): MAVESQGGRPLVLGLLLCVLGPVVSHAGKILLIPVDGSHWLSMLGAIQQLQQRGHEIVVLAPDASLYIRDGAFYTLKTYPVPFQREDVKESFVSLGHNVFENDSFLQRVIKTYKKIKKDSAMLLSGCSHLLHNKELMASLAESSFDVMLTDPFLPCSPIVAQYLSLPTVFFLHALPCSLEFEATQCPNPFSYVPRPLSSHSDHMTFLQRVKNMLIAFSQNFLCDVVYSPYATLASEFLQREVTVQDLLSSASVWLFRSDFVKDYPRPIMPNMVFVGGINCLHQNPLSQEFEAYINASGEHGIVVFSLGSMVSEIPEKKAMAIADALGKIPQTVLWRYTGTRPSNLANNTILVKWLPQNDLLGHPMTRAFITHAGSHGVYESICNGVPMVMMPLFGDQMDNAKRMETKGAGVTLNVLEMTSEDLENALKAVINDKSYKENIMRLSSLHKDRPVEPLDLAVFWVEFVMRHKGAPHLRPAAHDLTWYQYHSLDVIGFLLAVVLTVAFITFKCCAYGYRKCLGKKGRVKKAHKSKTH

T2: UGT1A1 (Homo sapiens, UniProt P22309)
T2 sequence (P22309 whole entry): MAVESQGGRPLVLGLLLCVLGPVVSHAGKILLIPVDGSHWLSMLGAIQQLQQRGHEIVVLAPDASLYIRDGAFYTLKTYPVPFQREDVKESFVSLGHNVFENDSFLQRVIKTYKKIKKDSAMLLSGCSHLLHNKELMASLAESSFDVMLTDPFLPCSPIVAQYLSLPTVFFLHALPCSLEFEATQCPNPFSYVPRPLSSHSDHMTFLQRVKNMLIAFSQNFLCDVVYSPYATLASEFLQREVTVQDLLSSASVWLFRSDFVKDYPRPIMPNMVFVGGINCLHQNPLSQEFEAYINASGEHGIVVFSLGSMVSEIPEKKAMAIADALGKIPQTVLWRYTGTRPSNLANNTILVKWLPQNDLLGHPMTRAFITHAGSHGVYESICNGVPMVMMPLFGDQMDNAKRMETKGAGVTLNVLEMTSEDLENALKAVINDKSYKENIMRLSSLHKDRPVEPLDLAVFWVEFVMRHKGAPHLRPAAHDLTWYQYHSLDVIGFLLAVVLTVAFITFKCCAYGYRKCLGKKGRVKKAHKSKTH

B1: UDP-glucuronosyltransferase 1A1 (Homo sapiens) (protein)
chain: MAVESQGGRPLVLGLLLCVLGPVVSHAGKILLIPVDGSHWLSMLGAIQQLQQRGHEIVVLAPDASLYIRDGAFYTLKTYPVPFQREDVKESFVSLGHNVFENDSFLQRVIKTYKKIKKDSAMLLSGCSHLLHNKELMASLAESSFDVMLTDPFLPCSPIVAQYLSLPTVFFLHALPCSLEFEATQCPNPFSYVPRPLSSHSDHMTFLQRVKNMLIAFSQNFLCDVVYSPYATLASEFLQREVTVQDLLSSASVWLFRSDFVKDYPRPIMPNMVFVGGINCLHQNPLSQEFEAYINASGEHGIVVFSLGSMVSEIPEKKAMAIADALGKIPQTVLWRYTGTRPSNLANNTILVKWLPQNDLLGHPMTRAFITHAGSHGVYESICNGVPMVMMPLFGDQMDNAKRMETKGAGVTLNVLEMTSEDLENALKAVINDKSYKENIMRLSSLHKDRPVEPLDLAVFWVEFVMRHKGAPHLRPAAHDLTWYQYHSLDVIGFLLAVVLTVAFITFKCCAYGYRKCLGKKGRVKKAHKSKTH

Experiments:
[1] = target: T1, UDP-glucuronosyltransferase 1A1; assay: Inhibition of human recombinant UGT1A1 expressed in HEK293 cells assessed as reduction in estradiol 3-glucuronidation by LC-MS/MS method; type: ADME, cell-based
[2] = target: T1, UDP-glucuronosyltransferase 1A1; assay: Inhibition of human recombinant UGT1A1 expressed in HEK293 cells assessed as reduction in bilirubin glucuronidation by LC-MS/MS method; type: ADME, cell-based
[3] = target: T1, UDP-glucuronosyltransferase 1A1; assay: Inhibition of human recombinant UGT1A1 expressed in HEK293 cells assessed as reduction in estradiol 3-glucuronidation using 4 to 75 uM estradiol by LC-MS/MS method; type: ADME, cell-based
[4] = target: T1, UDP-glucuronosyltransferase 1A1; assay: Activation of human recombinant UGT1A1 expressed in HEK293 cells assessed as increase in estradiol 3-glucuronidation at 6.25 uM using 4 uM estradiol by LC-MS/MS method relative to untreated control; type: ADME, cell-based; details: hek293, 6.25 µM
[5] = target: T1, UDP-glucuronosyltransferase 1A1; assay: Inhibition of human recombinant UGT1A1 expressed in HEK293 cells assessed as reduction in estradiol 3-glucuronidation at 50 uM using >15 uM estradiol by LC-MS/MS method; type: ADME, cell-based; details: hek293, 50 µM
[6] = target: T1, UDP-glucuronosyltransferase 1A1; assay: Activation of human recombinant UGT1A1 expressed in HEK293 cells assessed as increase in estradiol 3-glucuronidation at 6.25 uM by LC-MS/MS method; type: ADME, cell-based; details: hek293, 6.25 µM
[7] = target: T1, UDP-glucuronosyltransferase 1A1; assay: Activation of human recombinant UGT1A1 expressed in HEK293 cells assessed as increase in estradiol 3-glucuronidation by LC-MS/MS method relative to untreated control; type: ADME, cell-based
UGT1A1 = target: T2, UGT1A1; assay: Activation of human recombinant UGT1A1 expressed in HEK293 cells assessed as increase in estradiol 3-glucuronidation using 7.5 uM estradiol by LC-MS/MS method relative to untreated control; type: ADME, cell-based; details: probe estradiol (3-glucuronidation)
[8] = target: T1, UDP-glucuronosyltransferase 1A1; assay: Activation of human recombinant UGT1A1 expressed in HEK293 cells assessed as increase in estradiol 3-glucuronidation using 15 uM estradiol by LC-MS/MS method relative to untreated control; type: ADME, cell-based
[9] = substrate: CCc1c2c(nc3ccc(O)cc13)-c1cc3c(c(=O)n1C2)COC(=O)[C@]3(O)CC; assay: Drug metabolism assessed as UGT1A1 (unknown origin)-mediated compound glucuronidation; type: ADME, Homo sapiens

Molecule | IC50 ([1]; read-out: IC50) | IC50 [2] | also measured
O=C1NC(=O)C(c2ccccc2)(c2ccc(O)cc2)N1 (configuration not stated) | 110 µM | 120 µM | –
Cc1nnc(C(=O)NC(C)(C)c2nc(C(=O)NCc3ccc(F)cc3)c(O)c(=O)n2C)o1 | 190 µM | 170 µM | –
O=C1c2ccc(O)cc2C(=O)c2ccc(O)cc21 | 4 µM | 3.6 µM | –
Oc1cccc2ccccc12 [1-NAPHTHOL] | 280 µM | 240 µM | –
CCc1c2c(nc3ccc(O)cc13)-c1cc3c(c(=O)n1C2)COC(=O)[C@]3(O)CC [7-ETHYL-10-HYDROXYCAMPTOTHECIN] | – | 360 µM | IC50 ([1]; hek293): Not Active; inhibition (INH) [3]: 40%
O=c1cc(-c2ccccc2)oc2cc(O)c(O)c(O)c12 [BAICALEIN] | 4.4 µM | 7 µM | –
O=c1c(-c2ccc(O)cc2)coc2cc(O)ccc12 [DAIDZEIN] | 120 µM | 7.3 µM | Activity [4]: 392%; inhibition (INH) [5]: Active; Activity [6]: Active; Activity [7]: Active
C#C[C@]1(O)CC[C@H]2[C@@H]3CCc4cc(O)ccc4[C@H]3CC[C@@]21C [ETHINYL ESTRADIOL] | 44 µM | 21 µM | Activity (UGT1A1): ≤ 140%; Activity [8]: 128%; Activity [7]: Active
CC(C)=CCC/C(C)=C/CC/C(C)=C/CO [FARNESOL] | 40 µM | 47 µM | –
Cc1cc(=O)oc2cc(O)ccc12 [HYMECROMONE] | 100 µM | 100 µM | –
CC(=O)N1CCN(c2ccc(OCC3COC(Cn4ccnc4)(c4ccc(Cl)cc4Cl)O3)cc2)CC1 (configuration not stated) [KETOCONAZOLE] | 13 µM | 27 µM | –
N[C@@H](Cc1cc(I)c(Oc2cc(I)c(O)c(I)c2)c(I)c1)C(=O)O [LEVOTHYROXINE] | 5.6 µM | 4.9 µM | –
O=C(O)c1cccnc1Nc1cccc(C(F)(F)F)c1 [NIFLUMIC ACID] | 13 µM | 53 µM | –
Nc1nc2ccc(OC(F)(F)F)cc2s1 [RILUZOLE] | 160 µM | 180 µM | –
B1 | – | – | Km [9]: 25 µM
